The subject of one assay is SCD1. Kind of assay: Measurement of SCD1 expression in SZ95-SCD1-HiBit cells (HiBiT assay). It is filed as cell-based. Particulars: Homo sapiens, 48 h; for EC50: read-out: HiBit EC50.
The next assay concerns SZ95 sebocytes. Kind of assay: Sentinel Lipid Assay (SLA), desaturation index in SZ95 sebocytes. It is filed as cell-based. The note with it: Homo sapiens, 72 h; for EC50: read-out: SLA EC50. The procedure, abridged:
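SZ95 human sebocytes on fibronectin-coated plates, dosed 72 h at 37 °C with 1:3 dilutions from 10 μM; lipids extracted with deuterated triglyceride internal standards and quantified by LC-MS/MS (MRM) as 11 sentinel lipids. Desaturation index from elastic-net coefficients, normalized to DMSO; Amax relative to a reference LXR agonist.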

[1] abbreviates: normalized Amax based on the reference compound Amax of 100%, read-out: HiBit Normalized Amax.
The mark [2] stands for this setting: SZ95-SCD1-HiBit cells, SCD1 protein production, luminescence, initial dilution 1:3 in DMSO.
The mark [3] stands for this setting: SZ95-SCD1-HiBit cells, compared to reference compound, read-out: HiBit Amax.
Where [4] appears, read: normalized Amax based on the reference compound Amax of 100%, read-out: SLA Normalized Amax.
Where [5] appears, read: SZ95 cells, desaturation index, lowest dose used 4.6 nM.
Setting [6] is: SZ95 cells, compared to reference compound, read-out: SLA Amax.

Where two headings read alike, the source gives them in different places.

As to `O=C1N(Cc2nc(-c3ccc(Oc4ccccc4S(=O)(=O)CC4CCCO4)c(C(F)(F)F)c3)no2)C(=O)C2(CCN(C3CCC3)CC2)N1CCC1CCOCC1` (stereo not drawn) [Compound 19, 8-cyclobutyl-1-(2-(tetrahydro-2H-pyran-4-yl)ethyl)-3-((3-(4-(2-(((tetrahydrofuran-2-yl)methyl)sulfonyl)phenoxy)-3-(trifluoromethyl)phenyl)-1,2,4-oxadiazol-5-yl)methyl)-1,3,8-triazaspiro[4.5]decane-2,4-dione], the Emax in the assay on SCD1 (setting [1]) was 194%; in the assay with SCD1 (setting [3]) it was 184%; in the assay on SZ95 sebocytes (setting [4]) it was 146%; with SZ95 sebocytes (setting [6]), 140%. Further, the values for the concentration giving a half-maximal response (EC50) with SCD1 (setting [2]) and in the assay with SZ95 sebocytes (setting [5]) were 0.042 nM and ≤ 4.6 nM, respectively.

As for `CC(C)CS(=O)(=O)c1ccccc1Oc1ccc(-c2noc(CN3C(=O)CN(CCN4CCOCC4)C3=O)n2)cc1C(F)(F)F` [Compound 44, 3-((3-(4-(2-(isobutylsulfonyl)phenoxy)-3-(trifluoromethyl)phenyl)-1,2,4-oxadiazol-5-yl)methyl)-1-(2-morpholinoethyl)imidazolidine-2,4-dione], the Emax in the assay on SCD1 (setting [1]) amounted to 77%; in the assay on SCD1 (setting [3]), 73.2%; in the assay on SZ95 sebocytes (setting [4]), 86.4%; in the assay with SZ95 sebocytes (setting [6]), 82.9%. For the same compound, the half-maximal effective concentration (EC50) with SCD1 (setting [2]) is 6.65 nM; in the assay with SZ95 sebocytes (setting [5]), ≤ 4.6 nM.

Take `CC(CS(=O)(=O)c1ccccc1Oc1ccc(-c2noc(CN3C(=O)N(CCN4CCOCC4)C(C)(C)C3=O)n2)cc1C(F)(F)F)N1CCCC1` (stereo not drawn) [Compound 43, 5,5-dimethyl-1-(2-morpholinoethyl)-3-((3-(4-(2-((2-(pyrrolidin-1-yl)propyl)sulfonyl)phenoxy)-3-(trifluoromethyl)phenyl)-1,2,4-oxadiazol-5-yl)methyl)imidazolidine-2,4-dione]: the Emax with SCD1 (setting [1]) is 84.1%; in the assay with SCD1 (setting [3]), 80%; in the assay with SZ95 sebocytes (setting [4]) it was 147%; with SZ95 sebocytes (setting [6]) it was 141%. Also, the EC50 was 1.15 nM in the assay on SCD1 (setting [2]) and ≤ 4.6 nM in the assay with SZ95 sebocytes (setting [5]).

Take `CC1(C)C(=O)N(Cc2nc(-c3ccc(OCC(C)(C(F)(F)F)C(F)(F)F)c(C(F)(F)F)c3)no2)C(=O)N1CCC1CCOCC1` [Compound 1, 5,5-dimethyl-1-(2-(tetrahydro-2H-pyran-4-yl)ethyl)-3-((3-(4-(3,3,3-trifluoro-2-methyl-2-(trifluoromethyl)propoxy)-3-(trifluoromethyl)phenyl)-1,2,4-oxadiazol-5-yl)methyl)imidazolidine-2,4-dione]: the Emax stood at 91.7% with SCD1 (setting [1]), 87.2% in the assay with SCD1 (setting [3]), 87.1% in the assay on SZ95 sebocytes (setting [4]) and 83.6% in the assay with SZ95 sebocytes (setting [6]). Further, the concentration for a half-maximal effect (EC50) was 0.496 nM in the assay with SCD1 (setting [2]) and ≤ 4.6 nM with SZ95 sebocytes (setting [5]).

As for `CC(C)CS(=O)(=O)c1ccccc1Oc1ccc(-c2noc(CN3C(=O)N(CCN4CCOCC4)C4(CCN(C)CC4)C3=O)n2)cc1C(F)(F)F` [Compound 10, 3-((3-(4-(2-(isobutylsulfonyl)phenoxy)-3-(trifluoromethyl)phenyl)-1,2,4-oxadiazol-5-yl)methyl)-8-methyl-1-(2-morpholinoethyl)-1,3,8-triazaspiro[4.5]decane-2,4-dione], the Emax with SCD1 (setting [1]) was 111%; in the assay with SCD1 (setting [3]), 106%; with SZ95 sebocytes (setting [4]) it was 129%; with SZ95 sebocytes (setting [6]), 124%. The values for the EC50 in the assay on SCD1 (setting [2]) and with SZ95 sebocytes (setting [5]) were 0.079 nM and ≤ 4.6 nM, respectively.

For `CC1(C)C(=O)N(Cc2nc(-c3ccc(Oc4ccccc4S(=O)(=O)CC4CCCO4)c(C(F)(F)F)c3)no2)C(=O)N1CCN1CCOCC1` (stereo not drawn) [Compound 64, 5,5-dimethyl-1-(2-morpholinoethyl)-3-((3-(4-(2-(((tetrahydrofuran-2-yl)methyl)sulfonyl)phenoxy)-3-(trifluoromethyl)phenyl)-1,2,4-oxadiazol-5-yl)methyl)imidazolidine-2,4-dione], the Emax with SCD1 (read-out: HiBit Amax) was determined as 97.9%; with SCD1 (read-out: HiBit Normalized Amax) it was 103%; in the assay on SZ95 sebocytes (read-out: SLA Amax), 154%; with SZ95 sebocytes (read-out: SLA Normalized Amax) it was 160%. In addition, the results for the half-maximal effective concentration (EC50) with SCD1 and in the assay on SZ95 sebocytes were 0.063 nM and ≤ 4.6 nM, respectively.

On to `CC(C)CS(=O)(=O)c1ccccc1Oc1ccc(-c2noc(CN3C(=O)N(CCC4(O)CCOCC4)C(C)(C)C3=O)n2)cc1C(F)(F)F` [Compound 6, 1-(2-(4-hydroxytetrahydro-2H-pyran-4-yl)ethyl)-3-((3-(4-(2-(isobutylsulfonyl)phenoxy)-3-(trifluoromethyl)phenyl)-1,2,4-oxadiazol-5-yl)methyl)-5,5-dimethylimidazolidine-2,4-dione], for which the Emax in the assay on SCD1 (setting [1]) is 69.8%; in the assay on SCD1 (setting [3]), 66.4%; in the assay with SZ95 sebocytes (setting [4]), 101%; in the assay on SZ95 sebocytes (setting [6]), 96.7%. Further, the EC50 in the assay on SCD1 (setting [2]) was found to be 43.6 nM; in the assay on SZ95 sebocytes (setting [5]), 37.5 nM.

Consider `CC(C)CS(=O)(=O)c1ccccc1Oc1ccc(-c2noc(CN3C(=O)N(CCCN4CCCC4)C(C)(C)C3=O)n2)cc1C(F)(F)F` [Compound 50b, 3-((3-(4-(2-(isobutylsulfonyl)phenoxy)-3-(trifluoromethyl)phenyl)-1,2,4-oxadiazol-5-yl)methyl)-5,5-dimethyl-1-(3-(pyrrolidin-1-yl)propyl)imidazolidine-2,4-dione], for which the Emax turned out to be 67.1% in the assay with SCD1 (setting [1]), 63.8% in the assay on SCD1 (setting [3]), 60.6% in the assay on SZ95 sebocytes (setting [4]) and 58.2% with SZ95 sebocytes (setting [6]). The figures for the EC50 in the assay on SCD1 (setting [2]) and in the assay with SZ95 sebocytes (setting [5]) were 29.8 nM and 23.7 nM, respectively.

On to `O=C1N(Cc2nc(-c3ccc(Oc4ccccc4S(=O)(=O)CC4CCCO4)c(C(F)(F)F)c3)no2)C(=O)C2(CCOCC2)N1CCN1CCOCC1` (stereo not drawn) [Compound 56, 1-(2-morpholinoethyl)-3-((3-(4-(2-(((tetrahydrofuran-2-yl)methyl)sulfonyl)phenoxy)-3-(trifluoromethyl)phenyl)-1,2,4-oxadiazol-5-yl)methyl)-8-oxa-1,3-diazaspiro[4.5]decane-2,4-dione], for which the Emax with SCD1 (setting [1]) was determined as 76.6%; in the assay on SCD1 (setting [3]), 72.8%; in the assay with SZ95 sebocytes (setting [4]), 187%; in the assay on SZ95 sebocytes (setting [6]) it was 180%. Also, the results for the EC50 in the assay with SCD1 (setting [2]) and in the assay on SZ95 sebocytes (setting [5]) were 1.01 nM and ≤ 4.6 nM, respectively.

As to `CC(C)CS(=O)(=O)c1ccccc1Oc1ccc(-c2noc(CN3C(=O)N(CCN4CCOCC4)C4(CCN(C(=O)CCCCC(=O)O)CC4)C3=O)n2)cc1C(F)(F)F` [Compound 67, 6-(3-((3-(4-(2-(isobutylsulfonyl)phenoxy)-3-(trifluoromethyl)phenyl)-1,2,4-oxadiazol-5-yl)methyl)-1-(2-morpholinoethyl)-2,4-dioxo-1,3,8-triazaspiro[4.5]decan-8-yl)-6-oxohexanoic acid], the Emax is 88.9% with SCD1 (setting [1]), 84.5% in the assay on SCD1 (setting [3]), 103% with SZ95 sebocytes (setting [4]) and 99.1% with SZ95 sebocytes (setting [6]). The EC50 with SCD1 (setting [2]) is 3.94 nM; in the assay on SZ95 sebocytes (setting [5]), ≤ 4.6 nM.

For `O=C1N(Cc2nc(-c3ccc(Oc4ccccc4S(=O)(=O)CC(F)(F)F)c(C(F)(F)F)c3)no2)C(=O)C2(CCN(C3CCC3)CC2)N1CCC1CCOCC1` [Compound 48, 8-cyclobutyl-1-(2-(tetrahydro-2H-pyran-4-yl)ethyl)-3-((3-(4-(2-((2,2,2-trifluoroethyl)sulfonyl)phenoxy)-3-(trifluoromethyl)phenyl)-1,2,4-oxadiazol-5-yl)methyl)-1,3,8-triazaspiro[4.5]decane-2,4-dione], the Emax is 93.5% with SCD1 (setting [1]), 88.9% in the assay with SCD1 (setting [3]), 125% in the assay with SZ95 sebocytes (setting [4]) and 120% with SZ95 sebocytes (setting [6]). The concentration giving a half-maximal response (EC50) in the assay with SCD1 (setting [2]) is 0.053 nM; with SZ95 sebocytes (setting [5]), ≤ 4.6 nM.

As to `CCCC1(C)C(=O)N(Cc2nc(-c3ccc(Oc4ccccc4S(=O)(=O)CC(C)C)c(C(F)(F)F)c3)no2)C(=O)N1CCN1CCOCC1` (stereo not drawn) [Compound 2, 3-((3-(4-(2-(isobutylsulfonyl)phenoxy)-3-(trifluoromethyl)phenyl)-1,2,4-oxadiazol-5-yl)methyl)-5-methyl-1-(2-morpholinoethyl)-5-propylimidazolidine-2,4-dione], the Emax is 95.2% in the assay with SCD1 (setting [1]), 90.5% in the assay with SCD1 (setting [3]), 190% in the assay with SZ95 sebocytes (setting [4]) and 182% in the assay with SZ95 sebocytes (setting [6]). For the same compound, the EC50 with SCD1 (setting [2]) was 1.5 nM; in the assay with SZ95 sebocytes (setting [5]), ≤ 4.6 nM.

For `CC(C)CS(=O)(=O)c1ccccc1Oc1ccc(-c2noc(CN3C(=O)N(CCN4CCOCC4)C4(CCN(C5CCN(C)CC5)CC4)C3=O)n2)cc1C(F)(F)F` [Compound 22, 3-((3-(4-(2-(isobutylsulfonyl)phenoxy)-3-(trifluoromethyl)phenyl)-1,2,4-oxadiazol-5-yl)methyl)-8-(1-methylpiperidin-4-yl)-1-(2-morpholinoethyl)-1,3,8-triazaspiro[4.5]decane-2,4-dione], the Emax with SCD1 (setting [1]) was determined as 135%; in the assay on SCD1 (setting [3]), 129%; with SZ95 sebocytes (setting [4]), 160%; in the assay on SZ95 sebocytes (setting [6]), 154%. Further, the EC50 in the assay with SCD1 (setting [2]) was 1.83 nM; in the assay on SZ95 sebocytes (setting [5]) it was ≤ 4.6 nM.

Take `COCCS(=O)(=O)c1ccccc1Oc1ccc(-c2noc(CN3C(=O)N(CC4CC4)C(C)(C)C3=O)n2)cc1C(F)(F)F` [Compound 54, 1-(cyclopropylmethyl)-3-((3-(4-(2-((2-methoxyethyl)sulfonyl)phenoxy)-3-(trifluoromethyl)phenyl)-1,2,4-oxadiazol-5-yl)methyl)-5,5-dimethylimidazolidine-2,4-dione]: the Emax is 84.9% in the assay with SCD1 (setting [1]), 80.7% in the assay on SCD1 (setting [3]), 157% in the assay with SZ95 sebocytes (setting [4]) and 151% with SZ95 sebocytes (setting [6]). The EC50 is 3.86 nM in the assay with SCD1 (setting [2]) and ≤ 4.6 nM in the assay on SZ95 sebocytes (setting [5]).

The term EC50 denotes the concentration that produces a half-maximal response.

Source of the values: patent publication US11427586B2, “1,2,4-oxadiazole derivatives as liver X receptor agonists” (NOVARTIS AG, priority 2019, dated 2022).
